Data: US20240260578A1, “HERBICIDAL COMPOSITIONS AND RELATED METHODS” (BELCHIM Crop Protection USA LLC, priority 2023, published 2024)
Values joined by “and” are separate entries in the source; they are usually repeats but may differ in a detail not shown here. Equal values may be shown once.

Legend:
Assay type in all cases: in vivo
[1] = tested on: Yellow nutsedge (Cypersus esculentus); assay: Field trial, post-emergent control of established Yellow nutsedge (Example 1); conditions: 10 DAT, pyridate 24 fluid ounces/acre, sulfentrazone 12 fluid ounces/acre, visual estimate vs untreated plot, non-replicated
Method: Field trials were conducted to evaluate the efficacy of pyridate herbicide alone and in combination with sulfentrazone when applied in a post-emergent manner to established Yellow nutsedge (Cypersus esculentus). The field trial was conducted alongside of a gravel path on the Corbett Farm located Batten Pond Road in Selma, NC 27576. Yellow nutsedge was established and ranged from 8-12 inches in height. The distribution of weeds in the plots was uniform throughout this location.
Individual treatments were applied on a 1×4 meter squared plot area. The experimental design was a non-replicated linear strip plot. The applications were made with a RYOBI electric 4 gallon backpack sprayer equipped with 11004 nozzles with a spray pressure of 35 psi calibrated to deliver about 40 gallons per acre spray volume, respectively. All applications were applied on the same day. The wind speed was less than 10 mph at time of application.
Pyridate used in this trial was a five pound active ingredient per gallon emulsifiable concentrate (EC) marketed by Belchim Crop Protection as Tough® 5EC Herbicide. The sulfentrazone used in this trial was Sulfentrazone 4L Select marketed by Prime Source, a division of Albaugh, LLC. […]

[2] = tested on: green Kyllinga (Kyllinga brevifolia); assay: Post-emergent control of green Kyllinga, Hampstead, North Carolina (Example 3); conditions: 35 DAT, rates per Table 3
Method: (§1) A study was conducted to evaluate and compare the post-emergent control of green Kyllinga (Kyllinga brevifolia) versus the industry standards of Sulfentrazone Select or Halosulfuron 75 WDG. The study was conducted in Hampstead, North Carolina at Old Pointe Country Club. A randomized block design with four replications was utilized. Treatments were applied with a CO2 pressurized spray system. Irrigations were suspended for at least 24 hours after application.

[3] = tested on: Yellow Nutsedge; assay: Post-emergent control of Yellow Nutsedge, Hampstead, North Carolina (Example 4); conditions: 35 DAT, rates per Table 5
Method: as §1, with “Yellow Nutsedge” for “green Kyllinga (Kyllinga brevifolia)”, “application. [table]” for “application.”

Compound	Percentage (%) Control 10 Days after Treatment (DAT) [1]	Percentage Control [2]	Percentage Control [3]
CCCCCCCCSC(=O)Oc1cc(Cl)nnc1-c1ccccc1 [Pyridate, pyridate]	approximately 20% and 20%	–	–
Cc1nn(-c2cc(NS(C)(=O)=O)c(Cl)cc2Cl)c(=O)n1C(F)F [Sulfentrazone, sulfentrazone]	approximately 70% and 70%	43.3%	60%
